Experimental data taken from patent US6930091B2, “Peptides and remedy for bone diseases containing the same as active ingredient” (priority 1995, dated 2005).
Where no end group is shown, it is not given here.

Tested on: ddy male mice
Settings: mouse, in vivo, iv
Experimental: By using the peptide prepared in Example 1, its acute toxicity was tested on ddy male mice (with the body weight ranging from 40 to 45 g). The present peptide was dissolved in a physiological saline (pH 6.0) and the solution thereof was administered intravenously into a vein in the tail of each mouse, and observation was made for 14 days. The dosage amount was set respectively at 1, 10, and 100 μg/kg.

With “KLTTIFPLNWKYRKAL [Example 1, Lys Leu Thr Thr Ile Phe Pro Leu Asn Trp Lys Tyr Arg Lys Ala Leu]” the “Deceased mice (in words)” value was “not deceased mouse observed” and the “Number of Deceased Mice” value was 0/5.
